One test addresses Troponin, cardiac muscle (Homo sapiens, UniProt P19429+P45379+P63316). Nature of the test: Fluorescence-based biochemical high throughput dose response assay for activators of the calcium sensitivity of cardiac Regulated Thin Filaments (RTF). [Related pubchem assays (depositor defined):AID493008, AID493018, AID504382, AID504383]. It is filed as protein-complex assay.
Test [1] addresses T1, Corticotropin-releasing factor receptor 2/Corticotropin-releasing factor-binding protein (Homo sapiens, UniProt P24387+Q13324).
T1 sequence (Q13324 whole entry): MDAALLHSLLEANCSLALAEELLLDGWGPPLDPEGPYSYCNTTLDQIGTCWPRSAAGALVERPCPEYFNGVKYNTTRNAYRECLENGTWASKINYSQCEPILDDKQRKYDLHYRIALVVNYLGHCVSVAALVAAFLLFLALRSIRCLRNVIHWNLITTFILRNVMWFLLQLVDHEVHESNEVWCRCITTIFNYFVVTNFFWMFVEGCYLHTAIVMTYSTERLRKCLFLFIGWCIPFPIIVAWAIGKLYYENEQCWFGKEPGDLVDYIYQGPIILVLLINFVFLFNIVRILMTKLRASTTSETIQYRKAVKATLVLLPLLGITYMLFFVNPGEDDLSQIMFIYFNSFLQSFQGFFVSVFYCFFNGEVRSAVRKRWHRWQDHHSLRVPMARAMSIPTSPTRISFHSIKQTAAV
T1 sequence (P24387 whole entry): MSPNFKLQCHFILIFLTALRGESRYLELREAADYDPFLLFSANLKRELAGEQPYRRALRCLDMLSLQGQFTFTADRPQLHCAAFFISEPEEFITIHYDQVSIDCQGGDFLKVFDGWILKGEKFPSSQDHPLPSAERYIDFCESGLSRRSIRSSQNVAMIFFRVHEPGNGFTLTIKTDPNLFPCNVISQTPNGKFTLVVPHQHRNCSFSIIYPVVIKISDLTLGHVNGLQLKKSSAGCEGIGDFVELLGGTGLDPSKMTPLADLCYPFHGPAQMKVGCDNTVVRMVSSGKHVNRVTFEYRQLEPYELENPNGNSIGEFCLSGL
The experiment in a line: activators of CRF receptor 2 with binding protein – uHTS hits, confirmation (AID 602473). The following applies: read-out: EC50_Mean. It is filed as functional.

The next test deals with T2, Exodeoxyribonuclease V (Escherichia coli (strain K12), UniProt P04993+P07648+P08394).
T2 sequence (P04993 whole entry): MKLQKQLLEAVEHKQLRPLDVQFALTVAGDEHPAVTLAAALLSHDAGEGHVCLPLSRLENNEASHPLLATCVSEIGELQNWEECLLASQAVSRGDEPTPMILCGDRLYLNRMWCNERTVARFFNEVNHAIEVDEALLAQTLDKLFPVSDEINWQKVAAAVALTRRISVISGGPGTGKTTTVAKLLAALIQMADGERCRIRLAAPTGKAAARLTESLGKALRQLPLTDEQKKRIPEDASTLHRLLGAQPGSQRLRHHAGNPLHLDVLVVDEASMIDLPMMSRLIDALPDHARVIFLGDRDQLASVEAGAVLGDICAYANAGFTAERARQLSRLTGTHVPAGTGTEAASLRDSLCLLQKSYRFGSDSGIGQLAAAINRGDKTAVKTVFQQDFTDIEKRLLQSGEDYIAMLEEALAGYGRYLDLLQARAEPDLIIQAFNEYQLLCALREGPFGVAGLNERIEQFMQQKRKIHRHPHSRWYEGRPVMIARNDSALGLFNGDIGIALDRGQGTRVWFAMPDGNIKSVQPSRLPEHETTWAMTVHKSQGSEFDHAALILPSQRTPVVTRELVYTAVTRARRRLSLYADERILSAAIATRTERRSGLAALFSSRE
T2 sequence (P07648 whole entry): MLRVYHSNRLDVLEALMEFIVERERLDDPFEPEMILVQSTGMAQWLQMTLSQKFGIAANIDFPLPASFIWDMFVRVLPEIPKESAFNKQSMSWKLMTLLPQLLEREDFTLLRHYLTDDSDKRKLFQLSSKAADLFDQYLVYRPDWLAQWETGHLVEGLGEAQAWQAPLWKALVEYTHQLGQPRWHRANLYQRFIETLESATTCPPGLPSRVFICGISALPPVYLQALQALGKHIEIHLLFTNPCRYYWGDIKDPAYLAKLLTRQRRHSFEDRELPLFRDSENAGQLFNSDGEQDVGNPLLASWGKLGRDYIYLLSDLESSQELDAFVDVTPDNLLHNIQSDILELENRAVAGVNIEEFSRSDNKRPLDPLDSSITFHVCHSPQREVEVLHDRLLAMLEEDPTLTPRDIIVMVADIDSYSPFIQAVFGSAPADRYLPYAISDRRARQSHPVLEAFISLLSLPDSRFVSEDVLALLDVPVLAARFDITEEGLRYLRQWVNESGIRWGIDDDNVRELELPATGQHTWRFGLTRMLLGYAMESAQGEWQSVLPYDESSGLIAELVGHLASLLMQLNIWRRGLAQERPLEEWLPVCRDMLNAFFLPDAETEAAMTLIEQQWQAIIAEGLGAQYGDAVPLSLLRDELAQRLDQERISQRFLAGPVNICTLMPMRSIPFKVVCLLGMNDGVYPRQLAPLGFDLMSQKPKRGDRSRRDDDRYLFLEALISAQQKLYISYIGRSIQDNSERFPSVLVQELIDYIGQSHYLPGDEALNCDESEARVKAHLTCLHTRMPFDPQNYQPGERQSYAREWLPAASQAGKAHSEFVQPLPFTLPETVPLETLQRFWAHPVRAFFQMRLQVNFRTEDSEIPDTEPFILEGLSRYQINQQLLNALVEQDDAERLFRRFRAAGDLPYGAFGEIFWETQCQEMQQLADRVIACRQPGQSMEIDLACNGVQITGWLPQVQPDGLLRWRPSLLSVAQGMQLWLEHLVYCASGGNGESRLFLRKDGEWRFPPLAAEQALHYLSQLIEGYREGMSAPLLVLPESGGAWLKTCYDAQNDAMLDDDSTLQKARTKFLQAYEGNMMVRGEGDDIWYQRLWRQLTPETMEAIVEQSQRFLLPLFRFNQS
T2 sequence (P08394 whole entry): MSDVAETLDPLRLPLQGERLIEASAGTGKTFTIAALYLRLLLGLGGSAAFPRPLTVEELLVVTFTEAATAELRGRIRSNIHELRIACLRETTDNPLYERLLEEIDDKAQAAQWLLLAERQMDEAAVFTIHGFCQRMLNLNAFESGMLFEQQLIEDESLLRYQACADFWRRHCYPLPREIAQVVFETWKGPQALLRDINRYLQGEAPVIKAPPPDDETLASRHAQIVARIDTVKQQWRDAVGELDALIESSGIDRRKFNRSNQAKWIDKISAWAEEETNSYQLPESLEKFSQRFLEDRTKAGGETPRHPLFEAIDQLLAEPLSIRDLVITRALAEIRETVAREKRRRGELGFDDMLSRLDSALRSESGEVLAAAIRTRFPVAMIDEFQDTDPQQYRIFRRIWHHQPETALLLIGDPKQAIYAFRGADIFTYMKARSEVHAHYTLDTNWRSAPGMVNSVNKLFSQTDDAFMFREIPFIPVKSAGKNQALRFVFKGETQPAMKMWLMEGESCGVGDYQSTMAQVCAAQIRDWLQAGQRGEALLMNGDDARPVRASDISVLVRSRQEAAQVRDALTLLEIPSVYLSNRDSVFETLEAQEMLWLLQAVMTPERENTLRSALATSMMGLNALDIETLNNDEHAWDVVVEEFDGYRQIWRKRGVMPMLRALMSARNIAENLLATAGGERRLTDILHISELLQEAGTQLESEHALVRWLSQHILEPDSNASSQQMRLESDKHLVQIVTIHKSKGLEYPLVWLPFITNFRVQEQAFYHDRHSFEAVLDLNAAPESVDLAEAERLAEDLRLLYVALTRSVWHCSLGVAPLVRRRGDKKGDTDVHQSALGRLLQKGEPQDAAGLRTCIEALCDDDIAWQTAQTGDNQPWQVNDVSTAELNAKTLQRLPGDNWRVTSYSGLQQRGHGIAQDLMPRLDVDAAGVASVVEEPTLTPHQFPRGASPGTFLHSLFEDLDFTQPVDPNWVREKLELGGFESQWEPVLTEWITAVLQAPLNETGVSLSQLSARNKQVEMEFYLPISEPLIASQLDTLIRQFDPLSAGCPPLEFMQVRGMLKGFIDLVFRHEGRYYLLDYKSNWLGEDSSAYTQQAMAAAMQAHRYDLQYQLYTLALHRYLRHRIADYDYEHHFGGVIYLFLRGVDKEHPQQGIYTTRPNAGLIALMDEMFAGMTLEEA
The experiment in a line: E. coli RecBCD inhibitors, dose response, counter-screen for AddAB inhibitor project, absorbance, V66 E. coli, mutant T4 phage (AID 492957). It is filed as functional, cell-based, Escherichia coli str. K-12 substr. MG1655.

Test [2] in a line: Counterscreen for AddAB inhibitors: absorbance-based bacterial cell-based high throughput dose response assay for inhibitors of bacterial viability. [Related pubchem assays (depositor defined):AID435030, AID449728, AID449731, AID488942, AID488955, AID488956]. It is filed as functional.
Test [3] concerns the target DNA dC->dU-editing enzyme APOBEC-3A (Homo sapiens, UniProt P31941). The experiment in a line: Dose Response confirmation of small molecule APOBEC3A DNA Deaminase Inhibitors via a fluorescence-based single-stranded DNA deaminase assay. [Related pubchem assays (depositor defined):AID493011, AID493024]. It is filed as functional.
Test [4] concerns the target T3, Short transient receptor potential channel 4 (Mus musculus, UniProt Q9QUQ5).
T3 sequence (Q9QUQ5 whole entry): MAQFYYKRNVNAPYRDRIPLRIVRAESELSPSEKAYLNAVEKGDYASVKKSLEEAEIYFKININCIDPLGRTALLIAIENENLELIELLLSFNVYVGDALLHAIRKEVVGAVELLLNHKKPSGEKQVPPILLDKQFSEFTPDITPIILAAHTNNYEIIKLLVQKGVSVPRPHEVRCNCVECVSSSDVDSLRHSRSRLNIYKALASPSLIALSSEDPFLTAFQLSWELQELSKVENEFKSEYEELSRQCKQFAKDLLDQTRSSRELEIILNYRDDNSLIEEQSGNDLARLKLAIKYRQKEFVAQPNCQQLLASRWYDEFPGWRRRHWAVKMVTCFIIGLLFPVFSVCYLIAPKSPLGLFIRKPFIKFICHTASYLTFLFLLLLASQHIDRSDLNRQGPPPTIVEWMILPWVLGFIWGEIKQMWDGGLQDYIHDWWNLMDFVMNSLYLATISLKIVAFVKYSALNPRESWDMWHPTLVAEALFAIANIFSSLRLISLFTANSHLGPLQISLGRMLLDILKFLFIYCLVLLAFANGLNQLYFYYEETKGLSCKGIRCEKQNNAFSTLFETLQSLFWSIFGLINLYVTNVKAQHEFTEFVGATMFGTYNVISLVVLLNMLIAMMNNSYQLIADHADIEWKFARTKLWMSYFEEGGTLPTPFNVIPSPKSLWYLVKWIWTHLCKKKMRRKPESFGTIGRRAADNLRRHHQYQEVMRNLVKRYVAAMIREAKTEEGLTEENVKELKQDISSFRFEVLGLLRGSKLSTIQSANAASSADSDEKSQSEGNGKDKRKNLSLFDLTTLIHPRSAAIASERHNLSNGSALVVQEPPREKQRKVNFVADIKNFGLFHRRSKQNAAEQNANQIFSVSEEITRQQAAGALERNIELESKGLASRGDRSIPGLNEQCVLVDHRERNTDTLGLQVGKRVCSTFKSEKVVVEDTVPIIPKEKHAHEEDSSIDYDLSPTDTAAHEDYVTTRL
Nature of the test: mouse TRPC4 channel activators, dose response, cell-based, HEK293 TRPC4/mu-opioid, Fluo-4 calcium (AID 434937). The format is functional.

The target of test [5] is DNA dC->dU-editing enzyme APOBEC-3G (Homo sapiens, UniProt Q9HC16). It is filed as functional.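 Further: Dose-response counterscreen measuring inhibition of APOBEC3G DNA deaminase activity, run while confirming APOBEC3A inhibitors.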
The target of the next test is T4, Protein skinhead-1 (Caenorhabditis elegans, UniProt P34707).
T4 sequence (P34707 whole entry): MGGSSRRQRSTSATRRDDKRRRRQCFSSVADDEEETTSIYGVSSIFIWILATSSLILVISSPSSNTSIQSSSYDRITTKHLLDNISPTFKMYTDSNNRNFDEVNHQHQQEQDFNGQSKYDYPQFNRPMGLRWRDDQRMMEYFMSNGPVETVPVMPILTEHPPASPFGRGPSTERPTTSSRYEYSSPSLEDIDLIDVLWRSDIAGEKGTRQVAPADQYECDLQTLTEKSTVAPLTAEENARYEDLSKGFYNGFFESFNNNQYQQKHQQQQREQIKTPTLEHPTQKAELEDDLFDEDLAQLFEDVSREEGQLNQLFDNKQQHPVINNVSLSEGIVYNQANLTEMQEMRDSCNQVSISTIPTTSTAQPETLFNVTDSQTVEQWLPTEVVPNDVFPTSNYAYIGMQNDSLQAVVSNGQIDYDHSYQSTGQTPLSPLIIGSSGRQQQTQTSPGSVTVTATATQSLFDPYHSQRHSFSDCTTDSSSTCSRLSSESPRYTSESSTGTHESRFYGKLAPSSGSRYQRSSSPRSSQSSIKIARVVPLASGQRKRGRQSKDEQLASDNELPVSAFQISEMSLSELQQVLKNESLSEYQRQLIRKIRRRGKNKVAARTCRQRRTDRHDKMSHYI
It is filed as functional.

The next test deals with INS1. The experiment in a line: beta cell apoptosis inhibitors, cytokine rescue, dose response, luminescence, retest (AID 449756).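 Further: cell death triggered by IL-1 beta plus TNF-alpha plus IFN-gamma mixture; protective hits raise ATP signal compared with cytokine alone wells.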 The format is functional, cell-based. The following applies: Rattus norvegicus.

The source made the active and inactive calls.

DNA dC->dU-editing enzyme APOBEC-3A, sequence (P31941 whole entry): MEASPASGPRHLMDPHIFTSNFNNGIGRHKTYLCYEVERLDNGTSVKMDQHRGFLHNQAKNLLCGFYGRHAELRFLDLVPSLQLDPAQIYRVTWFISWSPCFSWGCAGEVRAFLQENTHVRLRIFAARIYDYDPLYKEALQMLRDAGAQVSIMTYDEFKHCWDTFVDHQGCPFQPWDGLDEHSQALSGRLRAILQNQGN
DNA dC->dU-editing enzyme APOBEC-3G, sequence (Q9HC16 whole entry): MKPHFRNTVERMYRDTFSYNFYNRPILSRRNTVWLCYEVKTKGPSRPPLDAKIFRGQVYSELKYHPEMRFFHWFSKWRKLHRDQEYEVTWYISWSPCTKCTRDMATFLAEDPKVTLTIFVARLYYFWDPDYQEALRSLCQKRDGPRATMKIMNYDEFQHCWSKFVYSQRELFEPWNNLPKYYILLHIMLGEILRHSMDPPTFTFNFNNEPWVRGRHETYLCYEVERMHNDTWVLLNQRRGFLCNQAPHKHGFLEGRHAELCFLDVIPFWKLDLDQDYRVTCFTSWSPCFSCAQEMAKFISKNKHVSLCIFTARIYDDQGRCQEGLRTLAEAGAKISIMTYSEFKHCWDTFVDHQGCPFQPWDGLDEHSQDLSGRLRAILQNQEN

On to `Cc1ccc(N2C(=O)C3C(C(=O)c4ccccc4)=NN(c4ccccc4)C3C2=O)cc1` (stereo unspecified), for which the EC50 on Troponin, cardiac muscle was 17.9 µM (inactive); in test [1] it was 22.2 µM (active).
Consider `COc1ccc(-c2cc(N3CCCC3)n3ncnc3n2)cc1`, for which the IC50 (on Exodeoxyribonuclease V; in test [2]) was > 119 µM (inactive) in each case.
On to `COC(=O)C1=C(C)N(Cc2ccccc2)C(NCCc2ccccn2)=N[C@H]1c1cccc(F)c1`, for which the IC50 is 2.67 µM (active) in [3], 4.79 µM (active) in test [5] and > 100 µM (inactive) on Protein skinhead-1. In addition, the EC50 in [4] was 5.96 µM (active).
Regarding `CCc1n[nH]c(CCN)n1`, the EC50 in test [4] was 3.76 µM (active).
As to `CC1(C)CCN2CCC(C)(C)c3c(O)ccc1c32`, on Troponin, cardiac muscle, the EC50 was 3.33 µM (active). Moreover, the AC50 in the test with INS1 is 7.71 µM (active).

(Values after ChEMBL document CHEMBL1201862, “PubChem BioAssay data set” (2004).)
